{"source": "patent US12077503B2", "about": "“Substituted cyclic amides and their use as herbicides” (FMC CORPORATION, priority 2015, dated 2024)", "type_in_all_cases": "in vivo", "key": {"[1]": {"system": "Kochia (Kochia scoparia)", "test": "Test A preemergence", "settings": "Bassia scoparia, pre-emergence, 240 h, 0 to 100 scale where 0 is no effect and 100 is complete control, read-out: Kochia plant response rating", "outline": "(§1)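 Preemergence soil spray on seeded pots or post-emergence spray on 1–2 leaf plants, in loam–sand blend. Greenhouse ~10 d. Visual rating 0–100 against untreated plants.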"}, "[2]": {"system": "barnyardgrass (Echinochloa crus-galli)", "test": "Test A preemergence", "settings": "Echinochloa crus-galli, pre-emergence, 240 h, 0 to 100 scale where 0 is no effect and 100 is complete control, read-out: Barnyardgrass plant response rating", "outline": "as §1"}, "[3]": {"system": "giant foxtail (Setaria faberii)", "test": "Test A preemergence", "settings": "Setaria faberi, pre-emergence, 240 h, 0 to 100 scale where 0 is no effect and 100 is complete control, read-out: Foxtail, Giant plant response rating", "outline": "as §1"}, "[4]": {"system": "pigweed (Amaranthus retroflexus)", "test": "Test A preemergence", "settings": "Amaranthus retroflexus, pre-emergence, 240 h, 0 to 100 scale where 0 is no effect and 100 is complete control, read-out: Pigweed plant response rating"}, "[5]": {"system": "ragweed (common ragweed, Ambrosia elatior)", "test": "Test A preemergence", "settings": "Ambrosia artemisiifolia, pre-emergence, 240 h, 0 to 100 scale where 0 is no effect and 100 is complete control, read-out: Ragweed plant response rating", "outline": "as §1"}, "[6]": {"system": "ryegrass, Italian (Italian ryegrass, Lolium multiflorum)", "test": "Test A preemergence", "settings": "Lolium multiflorum, pre-emergence, 240 h, 0 to 100 scale where 0 is no effect and 100 is complete control, read-out: Ryegrass, Italian plant response rating", "outline": "as §1"}, "[7]": {"system": "Galium (catchweed bedstraw, Galium aparine)", "test": "Test A postemergence", "settings": "Galium, post-emergence, 240 h", "outline": "as §1"}, "[8]": {"system": "Kochia (Kochia scoparia)", "test": "Test A postemergence", "settings": "Bassia scoparia, post-emergence, 240 h", "outline": "as §1"}, "[9]": {"system": "barnyardgrass (Echinochloa crus-galli)", "test": "Test A postemergence", "settings": "Echinochloa crus-galli, post-emergence, 240 h", "outline": "as §1"}, "[10]": {"system": "blackgrass (Alopecurus myosuroides)", "test": "Test A postemergence", "settings": "Alopecurus myosuroides, post-emergence, 240 h", "outline": "as §1"}, "[11]": {"system": "corn (Zea mays)", "test": "Test A postemergence", "settings": "Zea mays, post-emergence, 240 h", "outline": "as §1"}, "[12]": {"system": "giant foxtail (Setaria faberii)", "test": "Test A postemergence", "settings": "Setaria faberi, post-emergence, 240 h", "outline": "as §1"}, "[13]": {"system": "pigweed (Amaranthus retroflexus)", "test": "Test A postemergence", "settings": "Amaranthus retroflexus, post-emergence, 240 h", "outline": "as §1"}, "[14]": {"system": "ragweed (common ragweed, Ambrosia elatior)", "test": "Test A postemergence", "settings": "Ambrosia artemisiifolia, post-emergence, 240 h", "outline": "as §1"}, "[15]": {"system": "ryegrass, Italian (Italian ryegrass, Lolium multiflorum)", "test": "Test A postemergence", "settings": "Lolium multiflorum, post-emergence, 240 h", "outline": "as §1"}, "[16]": {"system": "wheat (Triticum aestivum)", "test": "Test A postemergence", "settings": "Triticum aestivum, post-emergence, 240 h", "outline": "as §1"}, "[17]": {"system": "barnyardgrass (Echinochloa crus-galli)", "test": "Test B flooded paddy test", "settings": "Echinochloa crus-galli, 250 g ai/ha, Flood; 0 to 100 scale where 0 is no effect and 100 is complete control; read-out: Barnyardgrass plant response rating", "outline": "(§2)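 Response scored visually against untreated controls, 0 = no effect and 100 = complete control, 13–15 d after treatment in the greenhouse. Compounds added to paddy water held 3 cm above soil surface. Treatment given at 2-leaf stage.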"}, "[18]": {"system": "ducksalad (Heteranthera limosa)", "test": "Test B flooded paddy test", "settings": "Heteranthera limosa, 250 g ai/ha, Flood; 0 to 100 scale where 0 is no effect and 100 is complete control; read-out: Ducksalad plant response rating", "outline": "as §2"}, "[19]": {"system": "rice (Oryra sativa)", "test": "Test B flooded paddy test", "settings": "Oryza sativa, 250 g ai/ha, Flood; 0 to 100 scale where 0 is no effect and 100 is complete control; read-out: Rice plant response rating", "outline": "as §2"}, "[20]": {"system": "sedge, umbrella (small-flower umbrella sedge, Cyperus difformis)", "test": "Test B flooded paddy test", "settings": "Cyperus difformis, 250 g ai/ha, Flood; 0 to 100 scale where 0 is no effect and 100 is complete control; read-out: Sedge, Umbrella plant response rating", "outline": "as §2"}, "[21]": {"settings": "125 g ai/ha, preemergence, approx. 10 d"}}, "data": [{"molecule": "CN1C[C@H](c2csc3c2CCC3)[C@@H](C(=O)Nc2ccccc2S(C)(=O)=O)C1=O", "note": "[Compound 1082]", "values": [{"measurement": "pest or weed control at 31 g/ha", "setting": "[1]; 31 g ai/ha, Preemergence", "value": 0, "unit": "%"}, {"measurement": "pest or weed control at 125 g/ha", "setting": "[1]; [21]", "value": 0, "unit": "%"}, {"measurement": "pest or weed control at 31 g/ha", "setting": "[2]; 31 g ai/ha, Preemergence", "value": 0, "unit": "%"}, {"measurement": "pest or weed control at 125 g/ha", "setting": "[2]; [21]", "value": 0, "unit": "%"}, {"measurement": "pest or weed control at 31 g/ha", "setting": "[3]; 31 g ai/ha, Preemergence", "value": 0, "unit": "%"}, {"measurement": "pest or weed control at 125 g/ha", "setting": "[3]; [21]", "value": 0, "unit": "%"}, {"measurement": "pest or weed control at 31 g/ha", "setting": "[4]; 31 g ai/ha, Preemergence", "value": 0, "unit": "%"}, {"measurement": "pest or weed control at 125 g/ha", "setting": "[4]; [21]", "value": 0, "unit": "%"}, {"measurement": "pest or weed control at 31 g/ha", "setting": "[5]; 31 g ai/ha, Preemergence", "value": 0, "unit": "%"}, {"measurement": "pest or weed control at 125 g/ha", "setting": "[5]; [21]", "value": 0, "unit": "%"}, {"measurement": "pest or weed control at 31 g/ha", "setting": "[6]; 31 g ai/ha, Preemergence", "value": 0, "unit": "%"}, {"measurement": "pest or weed control at 125 g/ha", "setting": "[6]; [21]", "value": 0, "unit": "%"}, {"measurement": "pest or weed control at 125 g/ha", "setting": "[7]; 125 g ai/ha, postemergence, visual injury on 0 to 100 scale (0 no effect, 100 complete control), approx. 10 d, read-out: Galium plant response rating", "value": 0, "unit": "%"}, {"measurement": "pest or weed control at 31 g/ha", "setting": "[7]; Postemergence, 31 g ai/ha, visual injury after approx. 10 d, 0 to 100 scale, 0 no effect, 100 complete control, read-out: Plant response rating, Galium", "value": 0, "unit": "%"}, {"measurement": "pest or weed control at 125 g/ha", "setting": "[8]; 125 g ai/ha, postemergence, visual injury on 0 to 100 scale (0 no effect, 100 complete control), approx. 10 d, read-out: Kochia plant response rating", "value": 0, "unit": "%"}, {"measurement": "pest or weed control at 31 g/ha", "setting": "[8]; Postemergence, 31 g ai/ha, visual injury after approx. 10 d, 0 to 100 scale, 0 no effect, 100 complete control, read-out: Plant response rating, Kochia", "value": 0, "unit": "%"}, {"measurement": "pest or weed control at 125 g/ha", "setting": "[9]; 125 g ai/ha, postemergence, visual injury on 0 to 100 scale (0 no effect, 100 complete control), approx. 10 d, read-out: Barnyardgrass plant response rating", "value": 30, "unit": "%"}, {"measurement": "pest or weed control at 31 g/ha", "setting": "[9]; Postemergence, 31 g ai/ha, visual injury after approx. 10 d, 0 to 100 scale, 0 no effect, 100 complete control, read-out: Plant response rating, Barnyardgrass", "value": 0, "unit": "%"}, {"measurement": "pest or weed control at 125 g/ha", "setting": "[10]; 125 g ai/ha, postemergence, visual injury on 0 to 100 scale (0 no effect, 100 complete control), approx. 10 d, read-out: Blackgrass plant response rating", "value": 0, "unit": "%"}, {"measurement": "pest or weed control at 31 g/ha", "setting": "[10]; Postemergence, 31 g ai/ha, visual injury after approx. 10 d, 0 to 100 scale, 0 no effect, 100 complete control, read-out: Plant response rating, Blackgrass", "value": 0, "unit": "%"}, {"measurement": "plant injury at 125 g/ha", "setting": "[11]; 125 g ai/ha, postemergence, visual injury on 0 to 100 scale (0 no effect, 100 complete control), approx. 10 d, read-out: Corn plant response rating", "value": 30, "unit": "%"}, {"measurement": "Corn plant response rating (crop injury, 0 = no effect, 100 = complete kill) at 31 g/ha", "setting": "[11]; Postemergence, 31 g ai/ha, visual injury after approx. 10 d, 0 to 100 scale, 0 no effect, 100 complete control", "value": 0, "unit": "%"}, {"measurement": "pest or weed control at 125 g/ha", "setting": "[12]; 125 g ai/ha, postemergence, visual injury on 0 to 100 scale (0 no effect, 100 complete control), approx. 10 d, read-out: Foxtail, Giant plant response rating", "value": 0, "unit": "%"}, {"measurement": "pest or weed control at 31 g/ha", "setting": "[12]; Postemergence, 31 g ai/ha, visual injury after approx. 10 d, 0 to 100 scale, 0 no effect, 100 complete control, read-out: Plant response rating, Foxtail, Giant", "value": 0, "unit": "%"}, {"measurement": "pest or weed control at 125 g/ha", "setting": "[13]; 125 g ai/ha, postemergence, visual injury on 0 to 100 scale (0 no effect, 100 complete control), approx. 10 d, read-out: Pigweed plant response rating", "value": 0, "unit": "%"}, {"measurement": "pest or weed control at 31 g/ha", "setting": "[13]; Postemergence, 31 g ai/ha, visual injury after approx. 10 d, 0 to 100 scale, 0 no effect, 100 complete control, read-out: Plant response rating, Pigweed", "value": 0, "unit": "%"}, {"measurement": "pest or weed control at 125 g/ha", "setting": "[14]; 125 g ai/ha, postemergence, visual injury on 0 to 100 scale (0 no effect, 100 complete control), approx. 10 d, read-out: Ragweed plant response rating", "value": 0, "unit": "%"}, {"measurement": "pest or weed control at 31 g/ha", "setting": "[14]; Postemergence, 31 g ai/ha, visual injury after approx. 10 d, 0 to 100 scale, 0 no effect, 100 complete control, read-out: Plant response rating, Ragweed", "value": 0, "unit": "%"}, {"measurement": "pest or weed control at 125 g/ha", "setting": "[15]; 125 g ai/ha, postemergence, visual injury on 0 to 100 scale (0 no effect, 100 complete control), approx. 10 d, read-out: Ryegrass, Italian plant response rating", "value": 0, "unit": "%"}, {"measurement": "pest or weed control at 31 g/ha", "setting": "[15]; Postemergence, 31 g ai/ha, visual injury after approx. 10 d, 0 to 100 scale, 0 no effect, 100 complete control, read-out: Plant response rating, Ryegrass, Italian", "value": 0, "unit": "%"}, {"measurement": "plant injury at 125 g/ha", "setting": "[16]; 125 g ai/ha, postemergence, visual injury on 0 to 100 scale (0 no effect, 100 complete control), approx. 10 d, read-out: Wheat plant response rating", "value": 0, "unit": "%"}, {"measurement": "plant injury at 31 g/ha", "setting": "[16]; Postemergence, 31 g ai/ha, visual injury after approx. 10 d, 0 to 100 scale, 0 no effect, 100 complete control, read-out: Plant response rating, Wheat", "value": 0, "unit": "%"}, {"measurement": "pest or weed control at 250 g/ha", "setting": "[17]", "value": 0, "unit": "%"}, {"measurement": "pest or weed control at 250 g/ha", "setting": "[18]", "value": 70, "unit": "%"}, {"measurement": "pest or weed control at 250 g/ha", "setting": "[19]", "value": 35, "unit": "%"}, {"measurement": "pest or weed control at 250 g/ha", "setting": "[20]", "value": 0, "unit": "%"}]}]}
